Here are results for 22 compounds from patent publication US8173682B2, “Substituted pyridones as inhibitors of poly(ADP-ribose) polymerase (PARP)” (Aventis Pharmaceuticals Inc., priority 2004, dated 2012).

Structures can show the parent of a compound that is named as a salt.

The term EC50 denotes the concentration at which the effect is half-maximal.

In experiment [1] the test system is intracellular synthesis of poly(ADP-ribose) in HL60 cells. Nature of the experiment: Cell-based PARP assay (poly(ADP-ribose) immunodetection in fixed cells). Conditions: Homo sapiens, HL-60, overnight incubation with compound, serum-free media. Here is the method: The following example illustrates the efficacy of the compounds of this invention in inhibiting the effects of PARP in a cell based assay.
Reagents: Media RMPI 1640+Glutamax: Gibco 61870-044); TBST/milk, TBST (Sigma T93039) containing 5% skimmed milk (Nestle Carnation nonfat dry milk)
HL60 cells at […] in serum free media are seeded into the wells of a 96-well plate at 100 μL/well. The plate is pre-incubated for 3 hr under normal tissue culture conditions. One hundred μL of serum-free media containing compound at 2× the required concentration in 0.6% DMSO are added (or 0.6% DMSO only to controls and blanks). The plate is incubated overnight under normal tissue culture conditions, then centrifuged at 190×g for 5 min at 4° C. to pellet cells. The media is carefully removed by aspiration, and the cells are incubated in 100 μL/well ice-cold 0.56% KCl for 2 min on ice. The plate is centrifuged as above to pellet cells, the KCl removed by aspiration, and 100 μL/well ice-cold methanol added. After 4 min on ice, methanol is removed by aspiration and the cells air-dried for 10-15 min at rt. The cells are washed with PBS×3, then washed with TBST/milk (1 wash, 5 min incubation at rt). The cells are incubated with 100 μL/well 0.25% Triton X 100 in PBS for 10 min at RT, then washed x# with PBS and ×1 with TBST. The cells are blocked for 1 hr with TBST/milk (200 μL/well) and then washed ×1 with TBST. The fixed cells are incubated with primary antibody (Calbiochem cat no. 528815) at 1:2000 dilution in TBST/milk (100 μL/well, overnight at 4 deg C.). The cells are washed with TBST (2 rinses, 1×15 min, 2×5 min at RT). The cells are incubated with secondary antibody (anti-rabbit Ig-biotin conjugate, Amersham RPN1004) in TBST/milk at 1:3500 dilution, 100 μL/well for 1 hr at RT. The cells are washed with TBST (2 rinses, 1×15 min, 2×5 min at RT). The cells are then incubated with 100 μL/well of 4-MUP (Sigma, M3168) in the dark for 4 hrs. The fluorescence is read using a plate reader (excitation at 360 nm, emission at 440 nm). To calculate compound effects, the fluorescence of the blank (no cells) is subtracted from all data. Fluorescence obtained with a standard cell-permeable potent inhibitor at 30 μM is subtracted from all other groups as this appears to represent a true blank. Compound effects can then be determined: a PARP inhibitor blocks the intracellular synthesis of poly(ADP-ribose), and results in a decreased reactivity (reduced final fluorescence) with primary antibody in the fixed and permeabilized cells.
The results obtained from this study are expressed as EC50 (median effective concentration of the test compound that was effective in preventing the cell death—expressed in micromolar (μM) concentration) for each of the tested compounds and are summarized in Table 2.

In experiment [2] the target is T1, recombinant human PARP (PARP1) (Homo sapiens, UniProt P09874).
T1 construct: Full length human PARP (PARP1) is assembled from PCR fragments; His6 tag with TEV site, from the pFastBac-HTb vector (own knowledge of the vector); made in house; host or cells: insect cells, baculovirus (Bac-to-Bac, Gibco-BRL)
Put plainly: PARP enzyme assay, Method A (radioactivity or 'ELISA' enzyme assay with partially purified enzyme). In kind it is biochemical. As to conditions: recombinant human PARP preparation, radioactive or ELISA enzyme assay. An outline of the steps: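 Partially purified recombinant full-length His-tagged human PARP1, baculovirus-expressed. Radioactive format: 100 μg/mL sonicated DNA, 100 μg/mL histones, 100 mM Tris pH 8.0, 10 mM MgCl2, 200 μM labeled NAD, 10 min 37 °C or 60 min RT, TCA-precipitated counts. ELISA format: 250 μM NAD plus biotin-NAD on histone plates, TMB A450.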

Experiment [3] has as its target recombinantly expressed human PARP-1 enzyme (Homo sapiens, UniProt P09874). Nature of the experiment: PARP enzyme assay, Method B (tritium-labeled NAD incorporation). Format: biochemical. Conditions: Method B; 200 μM NAD, room temperature 1 hour, pH 8.0; read-out: IC50 (μM)/Method B. Put shortly: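 DNA-activated purified recombinant enzyme (2 μg/mL) incubated with test compound for 1 h at room temperature, pH 8.0, with 200 μM NAD plus tritiated NAD, DNA and histones. TCA-precipitated radiolabelled protein collected on glass-fibre filters and counted; IC50 is the concentration halving incorporation versus no-inhibitor control.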

recombinantly expressed human PARP-1 enzyme, sequence (P09874 whole entry): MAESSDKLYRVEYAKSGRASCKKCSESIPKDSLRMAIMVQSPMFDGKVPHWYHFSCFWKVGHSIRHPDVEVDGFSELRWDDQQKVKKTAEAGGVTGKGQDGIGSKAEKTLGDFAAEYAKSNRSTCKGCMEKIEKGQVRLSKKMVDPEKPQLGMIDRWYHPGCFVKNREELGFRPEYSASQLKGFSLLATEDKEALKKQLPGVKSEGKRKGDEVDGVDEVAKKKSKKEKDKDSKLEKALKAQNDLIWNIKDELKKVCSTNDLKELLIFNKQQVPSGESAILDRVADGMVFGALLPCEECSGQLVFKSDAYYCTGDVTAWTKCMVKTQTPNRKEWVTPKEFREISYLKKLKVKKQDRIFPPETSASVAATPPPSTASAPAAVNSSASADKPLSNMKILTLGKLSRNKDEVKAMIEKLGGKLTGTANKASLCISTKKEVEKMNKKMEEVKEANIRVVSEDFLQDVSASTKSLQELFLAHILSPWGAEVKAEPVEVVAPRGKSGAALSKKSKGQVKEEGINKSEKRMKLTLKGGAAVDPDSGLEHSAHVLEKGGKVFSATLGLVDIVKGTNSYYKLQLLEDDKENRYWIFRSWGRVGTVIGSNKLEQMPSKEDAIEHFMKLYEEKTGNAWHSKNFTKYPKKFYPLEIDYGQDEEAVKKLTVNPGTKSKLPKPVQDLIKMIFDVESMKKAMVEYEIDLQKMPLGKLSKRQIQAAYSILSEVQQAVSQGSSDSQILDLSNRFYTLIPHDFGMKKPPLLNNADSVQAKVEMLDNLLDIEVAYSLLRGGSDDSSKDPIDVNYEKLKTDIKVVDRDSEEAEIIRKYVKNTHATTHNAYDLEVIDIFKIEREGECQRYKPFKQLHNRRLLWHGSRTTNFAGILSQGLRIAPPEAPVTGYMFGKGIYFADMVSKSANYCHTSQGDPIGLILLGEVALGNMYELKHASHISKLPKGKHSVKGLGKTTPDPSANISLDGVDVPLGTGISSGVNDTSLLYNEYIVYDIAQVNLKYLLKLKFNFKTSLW
T1 sequence (P09874 whole entry, the tested form may be a part): as the sequence (P09874 whole entry) above

In the case of `Cc1[nH]c(=O)c2c(c1-c1cccc(C#N)c1)CCCC2` [Example 5, 3-(3-Methyl-1-oxo-1,2,5,6,7,8-hexahydroisoquinolin-4-yl)benzonitrile], the EC50 in experiment [1] was 500 nM. In addition, the IC50 in experiment [2] was 0.2 µM.
In the same order, the values of `CCc1cc(-c2noc(C)n2)c(C)[nH]c1=O` [Example 22, 3-Ethyl-6-methyl-5-(5-methyl-1,2,4-oxadiazol-3-yl)-1H-pyridin-2-one] are 120 nM and 0.31 µM.
Consider `CCc1cc(-c2ccc(S(=O)(=O)N3CCN(c4ccc(F)cc4)CC3)s2)c(C)[nH]c1=O` [Example 25, 3-Ethyl-5-{5-[4-(4-fluorophenyl)piperazine-1-sulfonyl]thiophen-2-yl}-6-methyl-1H-pyridin-2-one], for which, in experiment [1], the EC50 was 4880 nM. Also, in experiment [2], the IC50 was determined as 0.76 µM.
For the compound `CCc1cc(-c2ccc(S(=O)(=O)NCc3ccc(C(F)(F)F)cc3)s2)c(C)[nH]c1=O` [Example 26, 5-(5-Ethyl-2-methyl-6-oxo-1,6-dihydropyridin-3-yl)thiophene-2-sulfonic acid 4-trifluoromethylbenzylamide], the half-maximal effective concentration (EC50) in experiment [1] turned out to be 2940 nM. The IC50 in experiment [2] turned out to be 0.19 µM.
In the case of `CCc1cc(-c2ccc(S(=O)(=O)NCc3cc(F)cc(F)c3)s2)c(C)[nH]c1=O` [Example 27, 5-(5-Ethyl-2-methyl-6-oxo-1,6-dihydropyridin-3-yl)thiophene-2-sulfonic acid 3,5-difluorobenzylamide], in experiment [1], the EC50 was found to be 14200 nM. For the same compound, in experiment [2], the IC50 came to 0.1 µM.
Consider `CCc1cc(-c2ccc(S(=O)(=O)NC3CCN(Cc4ccccc4)CC3)s2)c(C)[nH]c1=O` [Example 39, 5-(5-Ethyl-2-methyl-6-oxo-1,6-dihydropyridin-3-yl)thiophene-2-sulfonic acid (1-benzylpiperidin-4-yl)amide hydrochloride], for which the EC50 in experiment [1] amounted to 500 nM. In addition, in experiment [2], the IC50 was 0.07 µM.
Consider `CCc1cc(-c2ccc(S(=O)(=O)NCCCN3CCCCC3)s2)c(C)[nH]c1=O` [Example 63, 5-(5-Ethyl-2-methyl-6-oxo-1,6-dihydro-pyridin-3-yl)-thiophene-2-sulfonic acid (3-piperidin-1-yl-propyl)-amide hydrochloride], for which the 50% effective concentration (EC50) in experiment [1] was determined as 430 nM. Also, the IC50 in experiment [2] amounted to 0.42 µM.
For `CCc1cc(-c2ccc(S(=O)(=O)N3CCC(N4CCCCC4)CC3)s2)c(C)[nH]c1=O` [Example 67, 3-Ethyl-6-methyl-5-{5-[(4-piperidin-1-yl)piperidine-1-sulfonyl]thiophen-2-yl}-1H-pyridin-2-one hydrochloride], the EC50 in experiment [1] was 3110 nM. Further, in experiment [2], the IC50 amounted to 0.3 µM.
Regarding `CCc1cc(-c2ccc(S(=O)(=O)N3CCCC(Cn4ccnc4)C3)s2)c(C)[nH]c1=O` (stereo not drawn) [Example 70, 3-Ethyl-5-{5-[(3-imidazo-1-yl)methylpiperidine-1-sulfonyl]thiophene-2-yl}-6-methyl-1H-pyridin-2-one hydrochloride], the half-maximal effective concentration (EC50) in experiment [1] amounted to 260 nM. The IC50 in experiment [2] is 0.26 µM.
Take `CCc1cc(-c2ccc(S(=O)(=O)N3CCC(O)C3)s2)c(C)[nH]c1=O` (stereo not drawn) [Example 85, 3-Ethyl-5-[5-(3-hydroxypyrrolidine-1-sulfonyl)thiophen-2-yl]-6-methyl-1H-pyridin-2-one]: the EC50 in experiment [1] was found to be 330 nM. Moreover, in experiment [2], the IC50 was found to be 0.31 µM.
For `CCc1cc(-c2ccc(S(=O)(=O)NCCN(C)C)s2)c(C)[nH]c1=O` [Example 93, 5-(5-Ethyl-2-methyl-6-oxo-1,6-dihydropyridin-3-yl)thiophene-2-sulfonic acid (2-dimethylaminoethyl)amide hydrochloride], in experiment [1], the EC50 worked out at 560 nM. In addition, in experiment [2], the IC50 turned out to be 0.85 µM.
Take `CCc1cc(-c2ccc(S(=O)(=O)NCCN3CCCC3)s2)c(C)[nH]c1=O` [Example 95, 5-(5-Ethyl-2-methyl-6-oxo-1,6-dihydropyridin-3-yl)thiophene-2-sulfonic acid (2-pyrrolidin-1-yl)ethylamide hydrochloride]: the concentration for a half-maximal effect (EC50) in experiment [1] is 220 nM. The IC50 in experiment [2] is 0.2 µM.
In the case of `CCc1cc(-c2ccc(S(=O)(=O)NCc3cccnc3)s2)c(C)[nH]c1=O` [Example 101, 5-(5-Ethyl-2-methyl-6-oxo-1,6-dihydropyridin-3-yl)-thiophene-2-sulfonic acid (pyridin-3-ylmethyl)amide hydrochloride], in experiment [1], the EC50 stood at 50 nM. Also, the IC50 in experiment [2] was 0.17 µM.
With `CCc1cc(-c2ccc(S(=O)(=O)NCCc3cccnc3)s2)c(C)[nH]c1=O` [Example 107, 5-(5-Ethyl-2-methyl-6-oxo-1,6-dihydropyridin-3-yl)thiophene-2-sulfonic acid (2-pyridin-3-yl-ethyl)amide hydrochloride], in experiment [1], the EC50 worked out at 30 nM. The IC50 in experiment [2] worked out at 0.08 µM.
On to `CCc1cc(-c2ccc(S(=O)(=O)NCCc3ccncc3)s2)c(C)[nH]c1=O` [Example 109, 5-(5-Ethyl-2-methyl-6-oxo-1,6-dihydropyridin-3-yl)thiophene-2-sulfonic acid (2-pyridin-4-yl-ethyl)amide hydrochloride], for which the EC50 in experiment [1] amounted to 240 nM. Moreover, the IC50 in experiment [2] stood at 0.1 µM.
For `CCc1cc(-c2ccc(S(=O)(=O)NCc3ccncc3)s2)c(C)[nH]c1=O` [Example 110, 5-(5-ethyl-2-methyl-6-oxo-1,6-dihydropyridin-3-yl)thiophene-2-sulfonic acid (pyridin-4-ylmethyl)amide hydrochloride], the EC50 in experiment [1] was determined as 20 nM. Besides, the IC50 in experiment [2] was 0.08 µM.
For `CCc1cc(-c2ccc(S(=O)(=O)NCc3nc4ccccc4[nH]3)s2)c(C)[nH]c1=O` [Example 118, 5-(5-Ethyl-2-methyl-6-oxo-1,6-dihydro-pyridin-3-yl)thiophene-2-sulfonic acid (1H-benzimidazol-2-ylmethyl)amide hydrochloride], in experiment [1], the concentration for a half-maximal effect (EC50) stood at 30000 nM. For the same compound, the IC50 in experiment [2] amounted to 0.15 µM.
`CCc1cc(-c2ccc(CNC(=O)c3ccccn3)o2)c(C)[nH]c1=O` [Example 273, Pyridine-2-carboxylic acid [5-(5-ethyl-2-methyl-6-oxo-1,6-dihydro-pyridin-3-yl)-furan-2-ylmethyl]-amide]: the IC50 in experiment [3] was determined as 1.4 µM.
In the case of `CCc1cc(-c2ccc(CNC(C)=O)o2)c(C)[nH]c1=O` [Example 274, N-[5-(5-Ethyl-2-methyl-6-oxo-1,6-dihydro-pyridin-3-yl)-furan-2-ylmethyl]-acetamide], the IC50 in experiment [3] was found to be 0.83 µM.
Still for that read-out and setting: to `CCc1cc(-c2ccc(CNC(=O)c3cccc(N(C)C)c3)o2)c(C)[nH]c1=O` [Example 275, 3-Dimethylamino-N-[5-(5-ethyl-2-methyl-6-oxo-1,6-dihydro-pyridin-3-yl)-furan-2-ylmethyl]-benzamide] belongs 1.26 µM.
As to `CCc1cc(-c2ccc(CNC(=O)CN3CCCC3)s2)c(C)[nH]c1=O` [Example 276, N-[5-(5-Ethyl-2-methyl-6-oxo-1,6-dihydropyridin-3-yl)-thiophen-2-ylmethyl]-2-pyrrolidin-1-yl-acetamide], the IC50 in experiment [3] was determined as 0.8 µM.
Same read-out and setting: to `CCc1cc(-c2cccc(NS(=O)(=O)c3ccc(NC(C)=O)cc3)n2)c(C)[nH]c1=O` [Example 278, N-[4-(5′-Ethyl-2′-methyl-6′-oxo-1′,6′-dihydro-[2,3′]bipyridinyl-6-ylsulfamoyl)-phenyl]-acetamide] belongs 7.9 µM.
